Data on one compound can be found in patent publication US9920295B2, “Bioreactor for isolation of rare cells and methods of use” (The Trustees of the University of Pennsylvania, priority 2012, dated 2018).

SMILES strings stand for the structures.

One series deals with T1, NMM-IIA (Homo sapiens, UniProt P35579).
T1 construct: endogenous in cells; host or cells: THP-1 cells
The series can be described thus: NMM-IIA phosphorylation in THP-1 cells (IP, MS, flow cytometry). In kind it is cell-based. As to the method:
In general, cells were washed with ice-cold PBS and lysed on ice with lysis buffer (150 mM sodium chloride, 1% Nonidet P-40, 1% protease inhibitor mixture, 1 mM activated sodium orthovanadate, 50 mM Tris at pH 8.0) for 30 min. For immunoprecipitation (IP), 30 mM of pervanadate solution was prepared by mixing sodium orthovanadate with H2O2 for 15 min at room temperature. At least 1×10^7 THP-1 cells were treated with pervanadate with or without blebbistatin at 37° C. for 15 min. Cells were then washed, lysed, and whole-cleared lysate was mixed with anti-NMM-IIA antibody at 4° C. overnight, followed by incubation with Protein G (Invitrogen) for 1 h. For Western blot, whole lysate or IP proteins were separated on 4% to 12% SDS/PAGE gels (NuPAGE 4-12% Bis-Tris, Invitrogen). The proteins were then transferred to a polyvinylidene fluoride (PVDF) membrane with an iBlot Gel Transfer Device (Invitrogen), followed by blocking with 5% nonfat dry milk solution for 1 h. Incubation with primary antibodies was done at 4° C. overnight with 1:1,000β-actin, 1:250 pTyr, and 1:1,000 NMM-IIA antibodies. After washing, the membrane was incubated with 1:2,500 anti-rabbit and 1:1,000 anti-mouse HRP-conjugated IgG antibodies at room temperature for 1 h. […]

In series [1] the test system is human-CD41+ platelets in NSG mice. The series can be described thus: In vivo human platelet generation after intratibial transplantation into NSG mice. The arrangement: species or system mouse. As to the method:
Eight- to 10-wk-old nonobese diabetic (NOD)/SCID/IL-2Rγ−/− (NSG) mice were obtained and maintained in-house at the Penn Xenograft Core Facility. Before transplantation (˜24 h), mice received a sublethal dose of 320 cGy total body irradiation. Cultured human CD34^+-derived cells (0.5−3×10^5 uncultured BM CD34^+ equivalent) with or without drug treatment was suspended in 20 μL PBS and injected directly into the tibia. Peripheral blood (PB) was then obtained from the transplanted mice via retroorbital bleeding and human platelet quantification was done at indicated times. To calculate human platelet in NSG circulation, the total platelet concentration count was done by Hemavet (Drew Scientific), and 2 μL of PB per staining sample was washed in the presence of PGE1 inhibitor (Sigma) and resuspended in PBS. Cells were incubated with mouse Fc-blocker (BD Biosciences) for 5 min, followed by addition of mouse anti-human CD41-FITC and rat anti-mouse CD41-PE antibodies (eBioscience). After 30 min incubation at room temperature, cells were fixed by addition of 0.5% paraformaldehyde and analyzed by flow cytometry within 2 h. Platelets were gated on based on forward and side scatters, and at least 50,000 events were acquired. Human platelet concentration was obtained by multiplying the total platelet count by the percentage of human CD41-FITC of the total CD41^+ platelets (mouse plus human). Microscopic determination and isotype control with mixing known number of human platelets indicate the threshold detection limit of 0.001%. The total human platelet number in each transplanted NSG mouse was estimated by assuming that the average total mouse blood is ˜1.5 mL (Riches et al., 1973, J Physiol, 228:279-284). All animal experiments were performed in accordance with institutional guidelines approved by the ethical committee from the University of Pennsylvania.

Another series has as its system NMM-IIA pS1943. As to the kind of experiment: pS1943 of NMM-IIA by phospho-specific flow cytometry. In kind it is cell-based, human. The settings on record: under cytokine stimulation (SCF and Tpo). As to the method:
(§1) Cells were fixed with 4% paraformaldehyde in PBS for 10 min, washed with PBS and resuspended in 0.1% saponin in HBSS (staining medium). The samples were then stained with antibodies against cytoplasmic antigens, including NMM-IIA (Sigma), NMM-IIB, phospho-NMM-IIA and caspase-3 (all from Cell Signaling Technology) for 30 min at room temperature. In some cases, cells were concurrently stained with PE anti-CD34 or anti-human CD38 for subpopulation analysis. Cells were then washed and stained with anti-rabbit or mouse secondary antibodies conjugated with Alexa 647 (Invitrogen) for 30 min, followed by analysis on FACSCalibur.

Another series has as its system MKs. As to the kind of experiment: In vitro platelet generation from MKs. In kind it is cell-based, human. The following applies: 20 μM for 3 d, then 3 d of no drug. As to the method: For platelet-activation assays, platelet-sided fraction isolated from either MK culture or NSG blood was resuspended in Tyrode's buffer supplemented with Mg^2+ and Ca^2+, and incubated with indicated agonists for 15 min at 37° C., followed by staining with FITC-conjugated anti-human P-selectin or PAC-1 antibody (BD Bioscience), APC-conjugated anti-human CD41, and in the case of xenograft samples, PE-conjugated anti-mouse CD41 for 15 min at room temperature, followed by fixation with 1.5% paraformaldehyde. Antibody-stained samples were then analyzed by flow cytometry. Platelet number was evaluated by mixing each sample with a defined number (˜10,000 beads per sample) of APC-conjugated beads (BD Bioscience). The number of platelets per sample was evaluated by: number of CD41^+ events/number of APC-bead events multiplied by total known number of APC-bead added per sample.
Transplantation of uncultured human cord-blood CD34^+ cells in immuno-deficient nonobese diabetic (NOD)/SCID mice has been shown previously to yield sustained generation of human platelets (Salles et al., 2009, Blood, 114:5044-5051), but the intravenous delivery route used to date requires a large number of cells for homing and engraftment. Intrabone marrow transplantation was instead used here to more rapidly expose injected cells to the marrow microenvironment per FIG. 1A. […]

For a further series, the system named is CD34+-derived cells. As to the kind of experiment: Apoptosis by cleaved caspase-3 intracellular flow cytometry and Annexin-V. The following applies: cleaved caspase-3 and Annexin-V+. In kind it is cell-based, human. How it is done:
as §1
On the technique in general: Flow cytometry measures light scatter and fluorescence of single cells or particles in a stream.

T1 sequence (P35579 2-1960 limits assumed): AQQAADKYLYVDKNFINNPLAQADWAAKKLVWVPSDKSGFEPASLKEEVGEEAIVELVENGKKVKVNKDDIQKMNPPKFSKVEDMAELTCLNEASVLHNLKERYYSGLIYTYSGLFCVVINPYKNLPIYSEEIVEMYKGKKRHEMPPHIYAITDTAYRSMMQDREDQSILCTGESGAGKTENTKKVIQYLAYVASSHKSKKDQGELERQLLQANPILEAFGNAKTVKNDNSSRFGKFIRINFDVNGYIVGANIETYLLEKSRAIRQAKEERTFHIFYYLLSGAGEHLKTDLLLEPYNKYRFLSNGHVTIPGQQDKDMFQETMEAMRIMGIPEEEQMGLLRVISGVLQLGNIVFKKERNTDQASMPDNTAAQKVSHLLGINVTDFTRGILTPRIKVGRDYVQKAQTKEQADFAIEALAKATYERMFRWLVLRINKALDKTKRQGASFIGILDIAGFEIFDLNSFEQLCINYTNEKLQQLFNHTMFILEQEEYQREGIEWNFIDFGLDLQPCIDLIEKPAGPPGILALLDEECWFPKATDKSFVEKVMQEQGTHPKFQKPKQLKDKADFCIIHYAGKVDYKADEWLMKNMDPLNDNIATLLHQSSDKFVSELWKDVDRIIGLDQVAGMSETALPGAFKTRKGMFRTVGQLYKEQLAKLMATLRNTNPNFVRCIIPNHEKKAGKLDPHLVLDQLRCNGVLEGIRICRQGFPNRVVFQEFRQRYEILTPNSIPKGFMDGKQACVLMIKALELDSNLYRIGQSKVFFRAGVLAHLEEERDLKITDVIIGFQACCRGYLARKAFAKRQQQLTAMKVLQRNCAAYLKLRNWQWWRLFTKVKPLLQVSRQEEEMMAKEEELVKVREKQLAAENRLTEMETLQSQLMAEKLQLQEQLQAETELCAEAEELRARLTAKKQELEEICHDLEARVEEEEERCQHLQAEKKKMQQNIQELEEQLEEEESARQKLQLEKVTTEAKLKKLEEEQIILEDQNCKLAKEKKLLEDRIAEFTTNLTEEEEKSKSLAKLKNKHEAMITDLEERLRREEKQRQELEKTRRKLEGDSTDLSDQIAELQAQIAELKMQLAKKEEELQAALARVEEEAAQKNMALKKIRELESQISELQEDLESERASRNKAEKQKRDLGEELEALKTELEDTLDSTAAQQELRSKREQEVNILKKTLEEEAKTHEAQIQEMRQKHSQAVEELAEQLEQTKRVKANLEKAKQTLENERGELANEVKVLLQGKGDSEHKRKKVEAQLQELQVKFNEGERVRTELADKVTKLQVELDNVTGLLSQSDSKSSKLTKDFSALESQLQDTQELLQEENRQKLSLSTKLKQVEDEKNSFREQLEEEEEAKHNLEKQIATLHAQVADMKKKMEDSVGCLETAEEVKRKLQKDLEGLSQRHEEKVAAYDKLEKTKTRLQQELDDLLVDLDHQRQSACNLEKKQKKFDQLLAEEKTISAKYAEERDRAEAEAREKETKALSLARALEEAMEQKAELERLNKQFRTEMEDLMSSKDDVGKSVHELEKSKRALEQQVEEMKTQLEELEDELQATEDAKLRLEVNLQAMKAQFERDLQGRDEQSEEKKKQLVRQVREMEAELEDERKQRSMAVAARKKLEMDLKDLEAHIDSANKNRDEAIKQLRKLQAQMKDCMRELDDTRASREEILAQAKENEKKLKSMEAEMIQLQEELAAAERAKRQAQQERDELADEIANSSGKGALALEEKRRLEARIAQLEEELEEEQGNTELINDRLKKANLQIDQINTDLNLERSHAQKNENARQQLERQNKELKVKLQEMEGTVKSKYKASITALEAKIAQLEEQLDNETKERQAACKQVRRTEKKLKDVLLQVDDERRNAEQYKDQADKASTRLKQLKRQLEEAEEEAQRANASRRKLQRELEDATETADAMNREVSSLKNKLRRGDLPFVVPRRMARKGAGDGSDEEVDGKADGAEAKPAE
T1 sequence (P60660 2-151 partner limits assumed): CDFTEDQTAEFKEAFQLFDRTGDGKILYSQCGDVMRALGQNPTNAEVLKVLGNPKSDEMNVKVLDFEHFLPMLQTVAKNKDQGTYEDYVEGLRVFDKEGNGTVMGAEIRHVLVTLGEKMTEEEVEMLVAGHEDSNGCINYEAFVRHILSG
T1 sequence (O14950 2-172 partner limits assumed): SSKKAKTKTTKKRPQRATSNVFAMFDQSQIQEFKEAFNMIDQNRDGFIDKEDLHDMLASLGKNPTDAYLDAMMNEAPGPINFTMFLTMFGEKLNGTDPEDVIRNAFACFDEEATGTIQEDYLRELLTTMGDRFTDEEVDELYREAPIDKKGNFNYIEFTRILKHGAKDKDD

`Cc1ccc2c(c1)C(=O)C1(O)CCN(c3ccccc3)C1=N2` (racemic) [blebbistatin, (±)-blebbistatin]: at NMM-IIA (THP-1, basal and phosphatase-inhibited conditions), the pTyr levels entry is “decreases pTyr levels”. On NMM-IIA (THP-1, detergent-soluble monomer), the “phospho-S1943 of NMM-IIA” value is listed as “increases phospho-S1943”. In series [1] (Phase-I and Phase-II of circulation), the “human plts per transplanted CD41+ cell vs untreated” value is “about 4 fold”. Moreover, in series [1] (Phase-II decay, regardless of drug treatment), the plt half-life is roughly 37 h. The “in vivo human platelets per transplanted CD41+ cell vs untreated” value in series [1] (cells treated ex vivo 3 d, day 3 posttransplant) is reported as “about fourfold”. In the series with NMM-IIA pS1943, the “effect on pS1943 level” value is reported as “inhibits the reduction of pS1943”. Also, the “in vitro platelets per CD41+ cell vs untreated MKs” value in the series with MKs is given as 2.5 fold. Moreover, the increase in apoptosis result with CD34+-derived cells is “about 2 fold”.
